Test: In vitro Li delivery through pig skin in a flow-through Li-AgCl cell (protected Li metal foil donor electrode)
Type: in vitro ADME
Conditions: ICP-MS
Experimental: The glass receptor compartment was similar to one described by Phipps et al. (1988) Solid-state Ionics 28-30: 1778-1783, for ionophoretic drug delivery experiments. The receptor compartment was filled with RPMI-1640 Medium (Sigma Aldrich). The antibiotic gentamicin sulphate was added to the receptor compartment fluid to inhibit bacterial growth.
The prepared skin was stored in RPMI-1640 medium overnight before the start of the experiment. The skin was placed on the receptor chamber and kept in place and stretched out with an O-ring around the neck of the chamber. The visceral surface of the skin was in contact with the receptor fluid.
A square 1 cm×1 cm silver chloride cathode with a capacity of approximately 40 mAh was introduced into the receptor chamber through a port. A multi-channel peristaltic pump was used to create a flow of the RPMI-1640 medium through receptor compartments of several cells. […]
The donor-acceptor chamber assembly was kept in place using a clamp. […] Li content in the fluid samples taken from receptor compartment was analyzed by ICP-MS.
Over the duration of the experiment (27 hrs at a current density of 0.1 mA/cm^2 and 24 hrs at a current density of 0.2 mA/cm^2), receptor fluid samples were taken and analyzed.
The rate of Li delivery into the receptor compartment was calculated as a product of Li concentration and the flow rate of the receptor fluid.

initial Li content of receptor solution (before current passing): ≤ 6 µg/L
SMILES: [Li+] [Li, lithium]
Li content in receptor fluid samples (constant current 0.1 mA/cm^2 (27 hrs) and 0.2 mA/cm^2 (24 hrs), 37° C, RPMI-1640 receptor fluid, flow rate 2.1 mL/hr, FIG. 9): gradually increased over time and was significantly larger for the rate of 0.2 mA/cm^2 than for 0.1 mA/cm^2
